# Data: US20220177511A1, “SERIES OF HALOGENATED TETRACYCLIC TRITERPENE DERIVATIVES AND THEIR PREPARATION AND APPLICATION” (SHANGHAI KING-X BIOTECH CO., LTD, priority 2019, published 2022)
# Entries after “also recorded” stand apart in the source; their conditions may differ. Read-outs that look alike come from different tables or passages of the source.
# How the values were obtained:
# [1] = Stability test of compound 2 in fresh rat whole blood; format: in vitro ADME; design: half-life: dose or concentration left out as unconfirmed
# Procedure: Preparation of the tested product: Compound 2 was dissolved with an appropriate amount of dimethyl sulfoxide (DMSO) to obtain a 400 μM solution.
# 1) Fresh rat whole blood is added to the EP tube and shaken gently to mix.
# 2) Pre-incubate the EP tube in a water bath at 37° C. for 5 minutes.
# 3) Add Compound 2 and incubate at 37° C.
# 4) Every 50 μL of sample was taken from the sample tube to the stop tube (containing 5 μL internal standard, 5 μg/mL tolbutamide) at 0, 3 min, 6 min, 15 min, 30 min, and 60 min. 150 μL of acetonitrile was added and shaked to stop reaction, which was incubated in PBS system for 0 and 60 min.
# 5) Centrifuge for 5 min at 4° C. (13000 r/min), aspirate the supernatant, and analyze the sample.
# 50 μL of rat whole blood was added with 5 μL of internal standard working solution (5 μg/mL tolbutamide). 150 μL of acetonitrile was used to precipitate the proteins. The sample was centrifuged at 13,000 rpm and 4° C. for 5 min. The upper organic phase was taken and filtered with a 0.22 μM microporous membrane, which was then analyzed by LC-MS/MS. […]
# The In residual rate of compound 2 in the incubation system was plotted against the incubation time, and the slope k was obtained by linear regression. T1/2 (min) was calculated according to the formula (T1/2=−0.693/k).
# [2] = Plasma pharmacokinetics after single intragastric administration in rats; format: in vivo, SD rat; settings: for AUC0-t / AUC(0-inf) / CL/F / Cmax / Tmax / half-life / MRT inf / Vd/F: single gavage 10 mg/kg, Mean ± SD; for bioavailability: SD, single gavage 10 mg/kg vs intravenous 2 mg/kg; for MRT inf: read-out: MRT0-∞; for Vd/F: read-out: Vz/F
# Procedure: Strain: SD rat; Gender: half male and female. Weight: about 200-250 g. Source: Shanghai Slac Laboratory Animal Co., Ltd. Laboratory Animal Production License No.: SOCK (Shanghai) 2017-0005. Laboratory Animal Use License Certificate number: SYXK (Shanghai) 2014-0018. Breeding: constant temperature purification and ventilation animal room, 20-26° C., free food and water, humidity 40-70%, light for 12 h.
# Route A: single oral administration. Volume: calculated according to 10 mL/kg body weight. Preparation: an appropriate amount of compound 2 is added to a small amount of 0.5% CMC-Na and grinded, and another portion of 0.5% CMC-Na was added to form a suspension.
# 12 SD rats were divided into 2 groups, 6 rats in each group, […]. Fasting for 12 h before administration, free drinking water. The doses of 10 mg/kg were administered as a single gavage, and the doses of 2 mg/kg were administered as a single intravenous injection. About 100 μL orbital blood was collected before administration, 3 min, 10 min, 20 min, 30 min, 1 h, 2 h, 3 h, 4 h, 6 h, 8 h, 11 h, and 24 h after administration. For intravenous administration, orbital blood was collected before administration, 3 min, 8 min, 15 min, 30 min, 1 h, 2 h, 3 h, 4 h, 6 h, 8 h, 11 h, 24 h after injection. The blood was anticoagulated with 1% heparin, centrifuged at 8000 rpm for 4 min, and the plasma was separated. Store at −20° C. High concentration samples were diluted with blank plasma. 2.1.4 Determination method of plasma samples 2.1.4.1 Instrument (LC-MS/MS)
# Liquid chromatography system: Ultimate3000 liquid chromatography system (including Ultimate3000 ternary infusion pump, Ultimate3000 column oven, Ultimate3000 autosampler and Ultimate3000 vacuum degasser), Dionex Corporation. MS/MS system: 4000 Q-Trap tandem mass spectrometer with electrospray ionization source (ESI source), AB Company
# Column: Athena C18-WP 100A (2.1×50 mm, 5 μm); Injection volume: 10 μL; Mobile phase: A: acetonitrile; C: 0.05% ammonia, gradient elution (see table below); Flow rate: 0.3 mL/min
# The ion source is electrospray ionization source (ESI), the drying gas (N2) temperature is 500° C., the electrospray voltage is −4500 V, the detection method is negative ion detection, the scanning method is the […] (MRM) method and the scanning time is 0.15 s. The mass spectrometry parameters are as follows:
# 50 μL of rat whole blood was added with 2.5 μL of internal standard working solution (250 ng/mL tolbutamide). 150 μL of acetonitrile was used to precipitate the proteins. The sample was centrifuged at 13,000 rpm and 4° C. for 5 min. The upper organic phase was taken and filtered with a 0.22 μM microporous membrane, which was then analyzed by LC-MS/MS. […]
# [3] = Metabolic stability in rat liver microsomes; format: in vitro ADME
# [4] = Solubility test in water and FaSSIF; format: physicochemical; settings: thermodynamic from solid, 37° C., up to 24 hours, read-out: Solubility
# [5] = both sexes, rat, plasma, po, all rats (♂ and ♀)
# [6] = female, rat, plasma, po, rats ♀
smiles,measurement,setting,value
"CC(C)(O)[C@@H]1CC[C@](C)([C@H]2[C@@H](O)C[C@@]3(C)[C@@H]4C[C@H](O)[C@H]5C(C)(C)C(F)(F)CC[C@@]56C[C@@]46CC[C@]23C)O1 [Compound 2, (2aR,3R,4S,5aS,5bS,7S,7aR,11aR,12aS)-9,9-difluoro-3-((2R,5S)-5-(2-hydroxypropan-2-yl)-2-methyltetrahydrofuran-2-yl)-2a,5a,8,8-tetramethyltetradecahydro-1H,12H-cyclopenta[a]cyclopropa[e]phenanthrene-4,7-diol]",half-life,"[1]; fresh rat whole blood, rat whole blood, 37° C., 0-60 min, read-out: In vitro T1/2",10.7 h
same,stability in rat whole blood,"[1]; incubation 3, 6, 15, 30 and 60 min",relatively stable
same,AUC0-t,"[2]; all rats (♂ and ♀), 10 mg/kg",1916 ng·h/mL
same,bioavailability,"[2]; both sexes, rat, plasma, po, all rats (♂ and ♀), read-out: F (mean absolute bioavailability)",22%
same,AUC(0-inf),[2]; [5],2450 ± 3070 ng·h/mL
same,CL/F,[2]; [5],140 mL/min/kg
same,Cmax,[2]; [5],323 ng/mL
same,Tmax,[2]; [5],2.17 h
same,half-life,[2]; [5],2.89 h
same,AUC0-t,"[2]; both sexes, rat, plasma, po, all rats (♂ and ♀), read-out: AUC0-t",1920 ng·h/mL
same,MRT inf,[2]; [5],4.4 ± 1.28 h
same,Vd/F,[2]; [5],27.9 ± 19 L/kg
same,bioavailability,"[2]; female, rat, plasma, po, rats ♀, read-out: F (absolute bioavailability)",28.4%
same,AUC(0-inf),[2]; [6],4040 ± 3990 ng·h/mL
same,CL/F,[2]; [6],71.2 mL/min/kg
same,Cmax,[2]; [6],459 ± 277 ng/mL
same,Tmax,[2]; [6],2.33 ± 0.58 h
same,half-life,[2]; [6],3.64 ± 2.54 h
same,AUC0-t,"[2]; female, rat, plasma, po, rats ♀, read-out: AUC0-t",3000 ± 2430 ng·h/mL
same,MRT inf,[2]; [6],5.01 ± 1.71 h
same,Vd/F,[2]; [6],15.8 ± 9.24 L/kg
same,bioavailability,"[2]; male, rat, plasma, po, rats ♂, read-out: F (absolute bioavailability)",15.6%
same,AUC(0-inf),"[2]; male, rat, plasma, po, rats ♂",859 ± 297 ng·h/mL
same,CL/F,"[2]; male, rat, plasma, po, rats ♂",208 mL/min/kg
same,Cmax,"[2]; male, rat, plasma, po, rats ♂",187 ± 37 ng/mL
same,Tmax,"[2]; male, rat, plasma, po, rats ♂",2 ± 1 h
same,half-life,"[2]; male, rat, plasma, po, rats ♂",2.14 ± 0.64 h
same,AUC0-t,"[2]; male, rat, plasma, po, rats ♂, read-out: AUC0-t",831 ng·h/mL
same,MRT inf,"[2]; male, rat, plasma, po, rats ♂",3.78 ± 0.24 h
same,Vd/F,"[2]; male, rat, plasma, po, rats ♂",40 ± 19.5 L/kg
same,metabolic stability in rat liver microsomes,[3]; compared with compound 5 (cycloastragenol),relatively stable; also recorded: more stable than cycloastragenol
same,half-life at 5 µM,"[3]; liver microsomes, 5 μM compound, 37° C.",8.63 h
same,Solubility,[4]; FaSSIF (pH 6.5),15 µg/mL
same,Solubility,[4]; Water,2 µg/mL
